Source: patent US20140350111A1, “METHODS FOR TREATMENT AND PROPHYLAXIS AGAINST HEMORRHOIDS” (priority 2011, published 2014)
Where two headings read alike, the source gives them in different places.

Tests used:
[1] = three individuals; 660 mg at first noticeable symptom, then 440 mg three times daily at six-hour intervals
Description: After completing treatment in Example 1, three of the individuals at risk for hemorrhoids were treated at the onset of hemorrhoid symptoms to determine whether naproxen could halt or reverse the progression of the hemorrhoid symptoms.

[2] = one individual; 220 mg every day

For COc1ccc2cc([C@H](C)C(=O)O)ccc2c1 [naproxen sodium], the “progression of emerging hemorrhoid symptoms” value [1] was “symptoms did not worsen”, the “time to complete disappearance of all symptoms of hemorrhoids from commencement of treatment” value [1] was 12 to 24 h and the “hemorrhoid symptoms after treatment, as reported by individuals” value (440 mg three times daily at six-hour intervals, the one remaining individual) was “significant improvement in symptoms”. The “hemorrhoid symptoms after treatment, as reported by individuals” value (five individuals, 440 mg three times daily at six-hour intervals until symptoms abated, all treated individuals except one) was “complete lack of hemorrhoid symptoms after treatment” and the “occurrence of emerging hemorrhoid symptoms under prophylaxis” value [2] was “has not experienced any emerging hemorrhoid symptoms”.
